Here are results for ten compounds from patent EP0791603A2, “Pure somatostatin antagonist and methods of use thereof” (American Cyanamid Company, priority 1996, dated 1997).

Positions of bridges follow the written chain, without caps; N, C: chain ends. Non-standard residues stand in square brackets, D forms with d. Residues, ends and D or L forms follow the SMILES beside them. NMePhe(4-NO2) = CN[C@@H](Cc1ccc([N+](=O)[O-])cc1)C(=O)O; Phe(4-NO2) = N[C@@H](Cc1ccc([N+](=O)[O-])cc1)C(=O)O; 2Nal = N[C@@H](Cc1ccc2ccccc2c1)C(=O)O; d2Nal = N[C@H](Cc1ccc2ccccc2c1)C(=O)O; Abu = CC[C@H](N)C(=O)O

T1 sequence (P30680 whole entry): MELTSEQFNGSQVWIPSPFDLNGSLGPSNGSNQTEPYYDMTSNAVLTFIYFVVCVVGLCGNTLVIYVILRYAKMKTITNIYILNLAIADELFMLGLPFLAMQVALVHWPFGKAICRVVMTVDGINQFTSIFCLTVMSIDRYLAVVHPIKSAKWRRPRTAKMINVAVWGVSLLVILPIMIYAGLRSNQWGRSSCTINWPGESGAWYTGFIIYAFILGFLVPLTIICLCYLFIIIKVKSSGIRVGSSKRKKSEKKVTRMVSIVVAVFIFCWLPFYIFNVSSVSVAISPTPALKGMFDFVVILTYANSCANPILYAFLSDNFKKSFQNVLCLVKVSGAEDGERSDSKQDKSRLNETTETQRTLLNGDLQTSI

This assay addresses T1, rat somatostatin receptor subtype 2 (SSTR2) (Rattus norvegicus, UniProt P30680).
T1 construct: expressed in transfected cells; host or cells: Saccharomyces cerevisiae LY364
Briefly: Yeast assay, somatostatin agonist activity (growth zone of modified yeast cells on histidine-free agar). The assay is classed as cell-based. Particulars: rating on a scale of 1-5 from zone of growing cells; S. Cerevisiae LY364. On the procedure: In this evaluation, yeast cells which have been specifically modified to functionally express rat somatostatin receptor subtype 2 (SSTR2) on their cell surfaces are used. S. Cerevisiae LY364 cells are plated in a standard synthetic agar medium which lacks histidine. In the absence of a somatostatin receptor agonist, the auxotrophic (his3) cells are unable to grow. In the presence of somatostatin, or a somatostatin agonist, the expression of an enzyme (His3p: imidazole-glycerol phosphate dehydratase) which is essential for histidine biosynthesis is induced. The cells become competent to produce histidine, resulting in a zone of growing cells around the applied test compound. The zone is measured and the test compound is given an agonist rating on a scale of 1-5 wherein 1 is minimum agonist activity and 5 is maximum agonist activity.
SCD-ura-trp: • 1) To 500 mL water add: • 1.7 g YNB without amino acids and (NH4)2SO4 • 5.0 g (NH4)2SO4 • 0.7 g CSM-ura-trp • 2) To additional 500 mL water add: 20 g Dextrose • 3) Autoclave separately. Mix.
SCL-ura-trp: • 1) To 500 mL water add: • 1.7 g YNB without amino acids and (NH4)2SO4 • 5.0 g (NH4)2SO4 • 0.7 g CSM-ura-trp • 2) To additional 500 mL water add: 30 mL Lactic Acid • 3) Autoclave separately. Mix.
SCG-ura-trp: • 1) To 500 mL water add: • 1.7 g YNB without amino acids and (NH4)2SO4 • 5.0 g (NH4)2SO4 • 0.7 g CSM-ura-trp • 2) To additional 500 mL water add: 30 g D-Galactose • 3) Autoclave separately. Mix.
SCG-ura-trp-his agar medium, pH 6.8: • 1) To 500 mL water add: • 1.7 g YNB without amino acids and (NH4)2SO4 • 5.0 g (NH4)2SO4 • 0.7 g CSM-ura-trp-his • Stirring Bar • 2) Adjust pH to 6.8-6.9 by dropwise addition of conc. NH4OH • 3) To additional 500 mL water add: 30 g D-Galactose, 20 g Agar • 4) Autoclave separately. • 5) Stir to mix thoroughly. • 6) Equilibrate temperature to 55°C. YNB without amino acids and (NH4)2SO4, CSM-ura-trp, and CSM-ura-trp-his are manufactured by Bio101. Ammonium sulfate ((NH4)2SO4), Dextrose (D-glucose), D-Galactose, and Lactic Acid are manufactured by Sigma.
• 1) Inoculate 2 mL SCD-ura-trp liquid medium in Falcon 2051 tube with a single colony taken from a plate containing LY364 (MATa ura3-52 leu2 his3 trp1 lys2 ade2 far1:: LYS2 fus1:: FUS1-HIS3 gpal::hisG sst2::ADE2 bearing the SSTR2 expression plasmid, pJH2, and the G protein expression plasmid, pLP82)cells. • 2) Incubate overnight in a roller drum at 30°C.
Day 2. • 1) Harvest the cells by centrifugation (3 krpm, 5 min, room temp). • 2) Re-suspend with 5 mL of sterile water. • 3) Harvest again by centrifugation. • 4) Re-suspend in 5 mL SCL-ura-trp liquid medium. • 5) Incubate for 6 hours in a roller drum at 30°C. • 6) Harvest the cells again by centrifugation. • 7) Re-suspend in 5 mL SCG-ura-trp liquid medium. • 8) Incubate overnight in a roller drum at 30°C.
Day 3. • 1) Autoclave SCG-ura-trp-his pH 6.8 agar medium. • 2) Cool to 55°C in water bath. • 3) Add 1 mL of LY364 culture to 1 liter of agar medium. • 4) Stir vigorously for 1 min. • 5) Pour 150 mL each into five 500 cm^2 plates. • 6) Allow to cool on level surface. • 7) Apply test compound.
On day 3, add 5µL 1 mg/mL S-14 to each plate. Day 5. Begin checking plates for growth around applied compounds. Day 7. Growth in response to somatostatin should be readily observable. Rate extent of growth or inhibition of growth according to rating scale described hereinabove.
For `CC(=O)N[C@@H](Cc1ccc2ccccc2c1)C(=O)N[C@@H]1CSSC[C@@H](C(=O)N[C@@H](Cc2ccc(O)cc2)C(N)=O)NC(=O)[C@H]([C@@H](C)O)NC(=O)[C@H](CCCCN)NC(=O)[C@@H](Cc2c[nH]c3ccccc23)NC(=O)[C@H](Cc2ccc(O)cc2)NC1=O` (Ac-[2Nal][dC]Y[dW]KTCY-NH2; disulfide 2-7 (inferred)), the “Yeast Assay Agonist” value is given as “-”. For the compound `CN[C@@H](Cc1ccc([N+](=O)[O-])cc1)C(=O)N[C@@H]1CSSC[C@@H](C(=O)N[C@@H](Cc2ccc(O)cc2)C(N)=O)NC(=O)[C@H](C(C)C)NC(=O)[C@H](CCCCN)NC(=O)[C@@H](Cc2c[nH]c3ccccc23)NC(=O)[C@H](Cc2ccc(O)cc2)NC1=O` (H-[NMePhe(4-NO2)][dC]Y[dW]KVCY-NH2; disulfide 2-7 (inferred)), the “Yeast Assay Agonist” value is “-”. `CC(C)[C@@H]1NC(=O)[C@H](CCCCN)NC(=O)[C@@H](Cc2c[nH]c3ccccc23)NC(=O)[C@H](Cc2ccc(O)cc2)NC(=O)[C@H](NC(=O)[C@@H](N)Cc2ccc([N+](=O)[O-])cc2)CSSC[C@@H](C(=O)N[C@@H](Cc2ccc(O)cc2)C(N)=O)NC1=O` (H-[Phe(4-NO2)][dC]Y[dW]KVCY-NH2; disulfide 2-7 (inferred)): the “Yeast Assay Agonist” value was “-”. For the compound `CC(=O)N[C@@H](Cc1ccc([N+](=O)[O-])cc1)C(=O)N[C@@H]1CSSC[C@@H](C(=O)N[C@H](Cc2ccc(O)cc2)C(N)=O)NC(=O)[C@H]([C@@H](C)O)NC(=O)[C@H](CCCCN)NC(=O)[C@@H](Cc2c[nH]c3ccccc23)NC(=O)[C@H](Cc2ccc(O)cc2)NC1=O`, the “Yeast Assay Agonist” value is given as “-”. Take `C[C@@H](O)[C@@H]1NC(=O)[C@H](CCCCN)NC(=O)[C@@H](Cc2c[nH]c3ccccc23)NC(=O)[C@H](Cc2ccc(O)cc2)NC(=O)[C@H](NC(=O)[C@@H](N)Cc2ccc([N+](=O)[O-])cc2)CSSC[C@@H](C(=O)N[C@@H](Cc2ccc(O)cc2)C(N)=O)NC1=O`: the “Yeast Assay Agonist” value was “-”. Consider `CC(C)[C@@H]1NC(=O)[C@H](CCCCN)NC(=O)[C@@H](Cc2c[nH]c3ccccc23)NC(=O)[C@H](Cc2ccc(O)cc2)NC(=O)[C@H](NC(=O)[C@H](N)Cc2ccc3ccccc3c2)CSSC[C@@H](C(=O)N[C@@H](Cc2ccc(O)cc2)C(N)=O)NC1=O` (H-[d2Nal][dC]Y[dW]KVCY-NH2; disulfide 2-7), for which the “Yeast Assay Agonist” value is reported as “-”.

`C[C@@H](O)[C@@H]1NC(=O)[C@H](CCCCN)NC(=O)[C@@H](Cc2c[nH]c3ccccc23)NC(=O)[C@H](Cc2ccc(O)cc2)NC(=O)[C@H](NC(=O)[C@@H](N)Cc2ccc([N+](=O)[O-])cc2)CSSC[C@@H](C(=O)N[C@H](Cc2ccc(O)cc2)C(N)=O)NC1=O`: the “Yeast Assay Agonist” value is on record as “-”. For the compound `CC[C@@H]1NC(=O)[C@H](CCCCN)NC(=O)[C@@H](Cc2c[nH]c3ccccc23)NC(=O)[C@H](Cc2ccc(O)cc2)NC(=O)[C@H](NC(=O)[C@@H](N)Cc2ccc([N+](=O)[O-])cc2)CSSC[C@@H](C(=O)N[C@@H](Cc2ccc(O)cc2)C(N)=O)NC1=O` (H-[Phe(4-NO2)][dC]Y[dW]K[Abu]CY-NH2; disulfide 2-7 (inferred)), the “Yeast Assay Agonist” value is given as “-”. As for `CC(C)[C@@H]1NC(=O)[C@H](CCCCN)NC(=O)[C@@H](Cc2c[nH]c3ccccc23)NC(=O)[C@H](Cc2ccc(O)cc2)NC(=O)[C@H](NC(=O)[C@@H](N)Cc2ccc3ccccc3c2)CSSC[C@@H](C(=O)N[C@@H](Cc2ccc(O)cc2)C(N)=O)NC1=O` (H-[2Nal][dC]Y[dW]KVCY-NH2; disulfide 2-7; N-terminus assumed), the “Yeast Assay Agonist” value is reported as “-”. As to `CC(C)[C@@H]1NC(=O)[C@H](CCCCN)NC(=O)[C@@H](Cc2c[nH]c3ccccc23)NC(=O)[C@H](Cc2ccc(O)cc2)NC(=O)[C@H](NC(=O)[C@@H](N)Cc2ccc([N+](=O)[O-])cc2)CSSC[C@@H](C(=O)N[C@@H](Cc2ccc3ccccc3c2)C(N)=O)NC1=O` (H-[Phe(4-NO2)][dC]Y[dW]KVC[2Nal]-NH2; disulfide 2-7 (inferred)), the “Yeast Assay Agonist” value is recorded as “-”.
